Experimental data from PubChem BioAssay (NCI).
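Each compound was tested at five concentrations against cells in 96-well plates for 48 hours. GI50 = concentration required for 50% inhibition of growth. TGI marks complete inhibition of growth.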

How the values were obtained:
Experiment in all cases: DTP human tumour cell line panel, 48 h
[1] = system: 786-0 renal
[2] = system: A498 renal
[3] = system: A549 NSCLC
[4] = system: ACHN renal
[5] = system: BT-549 breast
[6] = system: CAKI-1 renal
[7] = system: CCRF-CEM leukemia
[8] = system: COLO 205 colon
[9] = system: DU-145 prostate
[10] = system: EKVX NSCLC
[11] = system: HCC-2998 colon
[12] = system: HCT-116 colon
[13] = system: HCT-15 colon
[14] = system: HL-60(TB) leukemia
[15] = system: HOP-62 NSCLC
[16] = system: HOP-92 NSCLC
[17] = system: HS 578T breast
[18] = system: HT29 colon
[19] = system: IGROV1 ovarian
[20] = system: K-562 leukemia
[21] = system: KM12 colon
[22] = system: LOX IMVI melanoma
[23] = system: M14 melanoma
[24] = system: MALME-3M melanoma
[25] = system: MCF7 breast
[26] = system: MDA-MB-231 breast
[27] = system: MDA-MB-468 breast
[28] = system: MOLT-4 leukemia
[29] = system: NCI-H226 lung
[30] = system: NCI-H23 lung
[31] = system: NCI-H460 lung
[32] = system: NCI-H522 lung
[33] = system: OVCAR-3 ovarian
[34] = system: OVCAR-4 ovarian
[35] = system: OVCAR-5 ovarian
[36] = system: OVCAR-8 ovarian
[37] = system: PC-3 prostate
[38] = system: RPMI-8226 leukemia
[39] = system: RXF 393 renal
[40] = system: SF-268 CNS
[41] = system: SF-295 CNS
[42] = system: SF-539 CNS
[43] = system: SK-MEL-2 melanoma
[44] = system: SK-MEL-28 melanoma
[45] = system: SK-MEL-5 melanoma
[46] = system: SK-OV-3 ovarian
[47] = system: SN12C renal
[48] = system: SNB-19 CNS
[49] = system: SNB-75 CNS
[50] = system: SR leukemia
[51] = system: SW-620 colon
[52] = system: T-47D breast
[53] = system: TK-10 renal
[54] = system: U251 CNS
[55] = system: UACC-62 melanoma
[56] = system: UO-31 renal

Structure (SMILES): O=C(Nc1cccc(-c2cn(-c3ccc4oc(=O)ccc4c3)nn2)c1)Nc1cc(C(F)(F)F)cc(C(F)(F)F)c1
- GI50 [1]: 12.6 µM
- TGI [1]: 68.1 µM
- GI50 [2]: 20.7 µM
- TGI [2]: > 100 µM
- GI50 [3]: 5.1 µM
- TGI [3]: > 100 µM
- GI50 [4]: 6.86 µM
- TGI [4]: 90.2 µM
- GI50 [5]: 7.19 µM
- TGI [5]: > 100 µM
- GI50 [6]: 6.3 µM
- TGI [6]: > 100 µM
- GI50 [7]: 3.31 µM
- TGI [7]: > 100 µM
- GI50 [8]: > 100 µM
- TGI [8]: > 100 µM
- GI50 [9]: 8.09 µM
- TGI [9]: > 100 µM
- GI50 [10]: 5.04 µM
- TGI [10]: > 100 µM
- GI50 [11]: 8.14 µM
- TGI [11]: > 100 µM
- GI50 [12]: 7.17 µM
- TGI [12]: > 100 µM
- GI50 [13]: 5.15 µM
- TGI [13]: > 100 µM
- GI50 [14]: 6.5 µM
- TGI [14]: > 100 µM
- GI50 [15]: 8.08 µM
- TGI [15]: 66.9 µM
- GI50 [16]: 3.66 µM
- TGI [16]: 31.3 µM
- GI50 [17]: 5.16 µM
- TGI [17]: > 100 µM
- GI50 [18]: > 100 µM
- TGI [18]: > 100 µM
- GI50 [19]: 8.87 µM
- TGI [19]: > 100 µM
- GI50 [20]: 3.25 µM
- TGI [20]: > 100 µM
- GI50 [21]: 5.2 µM
- TGI [21]: > 100 µM
- GI50 [22]: 7.55 µM
- TGI [22]: > 100 µM
- GI50 [23]: > 100 µM
- TGI [23]: > 100 µM
- GI50 [24]: 28.2 µM
- TGI [24]: > 100 µM
- GI50 [25]: 4.41 µM
- TGI [25]: > 100 µM
- GI50 [26]: 18.2 µM
- TGI [26]: > 100 µM
- GI50 [27]: 2.43 µM
- TGI [27]: 8.69 µM
- GI50 [28]: 3.82 µM
- TGI [28]: > 100 µM
- GI50 [29]: 5.57 µM
- TGI [29]: > 100 µM
- GI50 [30]: 3.34 µM
- TGI [30]: > 100 µM
- GI50 [31]: 4.81 µM
- TGI [31]: > 100 µM
- GI50 [32]: 4.39 µM
- TGI [32]: > 100 µM
- GI50 [33]: 3.31 µM
- TGI [33]: > 100 µM
- GI50 [34]: 3.42 µM
- TGI [34]: > 100 µM
- GI50 [35]: > 100 µM
- TGI [35]: > 100 µM
- GI50 [36]: 5.73 µM
- TGI [36]: > 100 µM
- GI50 [37]: 4.07 µM
- TGI [37]: > 100 µM
- GI50 [38]: 2.88 µM
- TGI [38]: > 100 µM
- GI50 [39]: 2.44 µM
- TGI [39]: 8.47 µM
- GI50 [40]: 21.3 µM
- TGI [40]: > 100 µM
- GI50 [41]: 3.31 µM
- TGI [41]: > 100 µM
- GI50 [42]: 15.1 µM
- TGI [42]: > 100 µM
- GI50 [43]: 5.55 µM
- TGI [43]: 25.7 µM
- GI50 [44]: > 100 µM
- TGI [44]: > 100 µM
- GI50 [45]: 4.18 µM
- TGI [45]: > 100 µM
- GI50 [46]: 18.6 µM
- TGI [46]: > 100 µM
- GI50 [47]: 6.31 µM
- TGI [47]: > 100 µM
- GI50 [48]: 10.1 µM
- TGI [48]: 89.8 µM
- GI50 [49]: 10.2 µM
- TGI [49]: 45.1 µM
- GI50 [50]: 5.63 µM
- TGI [50]: > 100 µM
- GI50 [51]: 55.5 µM
- TGI [51]: > 100 µM
- GI50 [52]: 3.14 µM
- TGI [52]: > 100 µM
- GI50 [53]: 13.4 µM
- TGI [53]: 56.9 µM
- GI50 [54]: 4.69 µM
- TGI [54]: > 100 µM
- GI50 [55]: 6.8 µM
- TGI [55]: > 100 µM
- GI50 [56]: 6.34 µM
- TGI [56]: > 100 µM
